Measurements from patent publication US12344610B2, “APOL1 inhibitors and methods of use” (Maze Therapeutics, Inc., priority 2022, dated 2025).

Key:
Type in all cases: cell-based
[1] = test system: HEK293 cells overexpressing APOL1 G2; test: APOL1 G2 HEK293 cell rescue assay (reversal of cell death caused by overexpression of APOL1); conditions: geometric mean of at least 2 assay runs, † = single assay run
Outline: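 EC50 is the half-maximal effective concentration for reversing cell death driven by APOL1 G2 overexpression in HEK293 cells. Reported as geometric mean of at least 2 runs on separate days, each run averaging duplicate wells per plate; some values from a single run.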

[2] = test system: HEK293 clonal cell line overexpressing APOL1 G1; test: APOL1 G1 HEK293 cell rescue assay (Example B3); conditions: geometric mean of at least 2 runs, † = single run, ¥ = concentration at 50% rescue estimated (no sigmoidal curve)
Outline: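 HEK293 clonal line overexpressing APOL1 G1; EC50 is half-maximal reversal of APOL1-induced cell death. Values are the geometric mean of ≥2 runs on separate days, each run the average of duplicate wells. Where no sigmoidal curve could be fitted, the concentration giving 50% rescue was estimated.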

[3] = test system: Trypanosoma brucei Lister 427 VSG221 with APOL1 G0 recombinant protein; test: APOL1 G0 trypanosome cell rescue assay (Example B5); conditions: Trypanosoma brucei, 20 h, read-out: APOL1 G0 Trypanosome Rescue EC50, Trypanosoma brucei Lister 427 VSG221 with APOL1 G0 recombinant protein, 20 hours, CellTiter-Glo; geometric mean of at least 2 assay runs; † = single assay run
Outline: (§1)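 Compounds in duplicate 2-fold, 11-point series with 0.4% DMSO final. Next, tag-free mature APOL1 variant protein went in from a 2 μg/mL solution, then trypanosomes to 250 per well. Plates incubated 20 h humidified at 37° C, equilibrated to room temperature, and CellTiter-Glo added for luminescence.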

[4] = test system: Trypanosoma brucei Lister 427 VSG221 with APOL1 G1 recombinant protein; test: APOL1 G1 trypanosome cell rescue assay (Example B5); conditions: Trypanosoma brucei, 20 h, read-out: APOL1 G1 Trypanosome Rescue EC50, Trypanosoma brucei Lister 427 VSG221 with APOL1 G1 recombinant protein, 20 hours, CellTiter-Glo; geometric mean of at least 2 assay runs; † = single assay run
Outline: as §1

[5] = test system: Trypanosoma brucei Lister 427 VSG221 with APOL1 G2 recombinant protein; test: APOL1 G2 trypanosome cell rescue assay (Example B5); conditions: Trypanosoma brucei, 20 h, read-out: APOL1 G2 Trypanosome Rescue EC50, Trypanosoma brucei Lister 427 VSG221 with APOL1 G2 recombinant protein, 20 hours, CellTiter-Glo; geometric mean of at least 2 assay runs; † = single assay run
Outline: as §1

[6] = Homo sapiens, HEK293, HEK293 overexpressing APOL1 G2
[7] = Homo sapiens, HEK293, HEK293 clonal line overexpressing APOL1 G1

O=C(c1ccc(OCCN2CCC3(CC2)C(=O)N(CCO)c2ccc(Cl)cc23)cc1C(F)(F)F)N1CCS(=O)(=O)CC1 [Compound 271, 4-(4-{2-[5-chloro-1-(2-hydroxyethyl)-2-oxo-1,2-dihydrospiro[indole-3,4′-piperidin]-1′-yl]ethoxy}-2-(trifluoromethyl)benzoyl)-1λ^6-thiomorpholine-1,1-dione] showed an EC50 [1, 6] of 152 nM, an EC50 [2, 7] of 340 nM and an EC50 [3] of 51 nM. For the same compound, the EC50 [4] was 50.7 nM and the EC50 [5] was 15.9 nM.

CC(CO)(c1ncc(OCCN2CCC3(CC2)C(=O)Nc2ccc(Cl)cc23)cc1C(F)(F)F)S(C)(=O)=O (single isomer, unassigned) [Compound 402, 5-chloro-1′-[2-({6-[(2S or 2R)-1-hydroxy-2-methanesulfonylpropan-2-yl]-5-(trifluoromethyl)pyridin-3-yl}oxy)ethyl]-1,2-dihydrospiro[indole-3,4′-piperidin]-2-one] was tested, and the EC50 ([1]; HEK293 overexpressing APOL1 G2) was 23.8 nM, the EC50 ([2]; HEK293 clonal line overexpressing APOL1 G1) was 35.7 nM and the EC50 [3] was 33.6 nM. The EC50 [4] was 42.7 nM and the EC50 [5] was 16.5 nM.

C[C@]1(O)C[C@@H](n2c(=O)n(CO)c3cc(OCCN4CCC5(CC4)C(=O)Nc4ccc(C#N)cc45)cc(C(F)(F)F)c32)C1 [Compound 469, 1′-(2-{[3-(hydroxymethyl)-2-oxo-1-[(cis)-3-hydroxy-3-methylcyclobutyl]-7-(trifluoromethyl)-2,3-dihydro-1H-1,3-benzodiazol-5-yl]oxy}ethyl)-2-oxo-1,2-dihydrospiro[indole-3,4′-piperidine]-5-carbonitrile] was tested, and the EC50 [1, 6] was 19.9 nM, the EC50 [2, 7] was 48.7 nM and the EC50 [3] was 9.76 nM. For the same compound, the EC50 [4] was 15.5 nM and the EC50 [5] was 5.33 nM.

C[C@]1(O)C[C@@H](N2C(=O)CCc3cc(OCCN4CCC5(CC4)C(=O)Nc4ccc(C#N)cc45)cnc32)C1 [Compound 404, 2-oxo-1′-[2-({7-oxo-8-[(cis)-3-hydroxy-3-methylcyclobutyl]-5,6,7,8-tetrahydro-1,8-naphthyridin-3-yl}oxy)ethyl]-1,2-dihydrospiro[indole-3,4′-piperidine]-5-carbonitrile] showed an EC50 [1, 6] of 129 nM, an EC50 [2, 7] of 247 nM and an EC50 [3] of 425 nM. For the same compound, the EC50 [4] was 554 nM and the EC50 [5] was 210 nM.

In the case of O=C1Nc2ccc(Cl)cc2C12CCN(CCOc1cnc(C3(O)CC3)nc1)CC2 [Compound 308, 5-chloro-1′-(2-{[2-(1-hydroxycyclopropyl)pyrimidin-5-yl]oxy}ethyl)-1,2-dihydrospiro[indole-3,4′-piperidin]-2-one], the EC50 [1, 6] is reported as 112 nM, the EC50 [2, 7] is reported as 196 nM and the EC50 [3] is reported as 335 nM. It also gave an EC50 [4] of 435 nM and an EC50 [5] of 150 nM.
